Laboratory results taken from ChEMBL document CHEMBL1201862, “PubChem BioAssay data set” (2004).
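Following 48 hours of exposure in 96-well plates, responses at five concentrations were used to interpolate endpoints linearly. GI50 is the concentration that inhibits growth by half.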 Active and inactive are the calls of the source. No stated cut-off is given here; in the data, active = GI50 up to about 1.1 µM and inactive = higher.

Experiments:
Assay in all cases: DTP human tumour cell line panel, 48 h
[1] = test system: HOP-92
[2] = test system: RXF 393
[3] = test system: HCC 2998
[4] = test system: UO-31
[5] = test system: SF-295
[6] = test system: HL-60
[7] = test system: MOLT-4
[8] = test system: A498
[9] = test system: NCI-H226
[10] = test system: SK-MEL-28
[11] = test system: NCI-H23
[12] = test system: SNB-19
[13] = test system: EKVX
[14] = test system: ACHN
[15] = test system: Malme-3M
[16] = test system: OVCAR-4
[17] = test system: CAKI-1

Row | SMILES | GI50 [1] | GI50 [2] | GI50 [3] | GI50 [4] | GI50 [5] | GI50 [6] | GI50 [7] | GI50 [8] | GI50 [9] | GI50 [10] | GI50 [11] | GI50 [12] | GI50 [13] | GI50 [14] | GI50 [15] | GI50 [16] | GI50 [17]
1 | CCOC(=O)C1S/C(=N\c2cccc(Cl)c2C)N=C1C (configuration not stated) | 15.1 µM (inactive) | 21.7 µM (inactive) | > 10 µM (inactive) | 37.4 µM (inactive) | 18.8 µM (inactive) | 21.6 µM (inactive) | 29.7 µM (inactive) | 34.2 µM (inactive) | 32.8 µM (inactive) | 40 µM (inactive) | > 10 µM (inactive) | 31.4 µM (inactive) | > 10 µM (inactive) | 25.3 µM (inactive) | 19.6 µM (inactive) | 31 µM (inactive) | –
2 | CCc1nnc(S)n1/N=C/c1ccc(-c2ccc([N+](=O)[O-])cc2)o1 | > 100 µM (inactive) | – | > 100 µM (inactive) | > 100 µM (inactive) | > 100 µM (inactive) | > 100 µM (inactive) | > 100 µM (inactive) | – | > 100 µM (inactive) | > 100 µM (inactive) | > 100 µM (inactive) | > 100 µM (inactive) | – | > 100 µM (inactive) | > 100 µM (inactive) | > 100 µM (inactive) | > 100 µM (inactive)
3 | CC(C)C(/N=C1\CC2CCC1(C(=O)Nc1ccccc1O)C2(C)C)c1ccccc1 (configuration not stated) | 2.23 µM (inactive) | – | > 10 µM (inactive) | > 10 µM (inactive) | > 10 µM (inactive) | 2.4 µM (inactive) | 3.18 µM (inactive) | > 10 µM (inactive) | > 10 µM (inactive) | > 10 µM (inactive) | 7.67 µM (inactive) | > 10 µM (inactive) | 7.43 µM (inactive) | > 10 µM (inactive) | > 10 µM (inactive) | > 10 µM (inactive) | > 10 µM (inactive)
4 | O=c1nc(NC(c2ccccc2)(c2ccccc2)c2ccccc2)ccn1CCCl | 14.2 µM (inactive) | 16.1 µM (inactive) | 14.9 µM (inactive) | 47.6 µM (inactive) | 20.6 µM (inactive) | 22.8 µM (inactive) | 16.2 µM (inactive) | 64.7 µM (inactive) | 21.2 µM (inactive) | 15 µM (inactive) | 23.2 µM (inactive) | 15.1 µM (inactive) | 26.9 µM (inactive) | 27.8 µM (inactive) | 14.6 µM (inactive) | 20.6 µM (inactive) | –
5 | COC12CCC(C(C(=O)c3ccccc3)=C1C(=O)c1ccccc1)C(O)C2 (configuration not stated) | > 100 µM (inactive) | – | > 100 µM (inactive) | > 100 µM (inactive) | > 100 µM (inactive) | > 100 µM (inactive) | > 100 µM (inactive) | 67.3 µM (inactive) | > 100 µM (inactive) | > 100 µM (inactive) | > 100 µM (inactive) | > 100 µM (inactive) | > 100 µM (inactive) | – | > 100 µM (inactive) | > 100 µM (inactive) | > 100 µM (inactive)
6 | O=c1cc(-c2ccccc2)oc2cc(OCC(O)COc3ccc4c(=O)cc(-c5ccccc5)oc4c3)ccc12 | 26.5 µM (inactive) | – | – | > 100 µM (inactive) | 38.4 µM (inactive) | 23 µM (inactive) | 40.2 µM (inactive) | > 100 µM (inactive) | – | > 100 µM (inactive) | 43.9 µM (inactive) | 20.2 µM (inactive) | > 100 µM (inactive) | – | > 100 µM (inactive) | – | > 100 µM (inactive)
7 | CCCCSC1CCSc2c1ccc1ccccc21 (configuration not stated) | 46.8 µM (inactive) | 52.8 µM (inactive) | 65.9 µM (inactive) | > 100 µM (inactive) | > 100 µM (inactive) | 93.1 µM (inactive) | 34.3 µM (inactive) | – | – | > 100 µM (inactive) | > 100 µM (inactive) | > 100 µM (inactive) | – | – | 10.2 µM (inactive) | > 100 µM (inactive) | > 100 µM (inactive)
8 | CC12CCC(=O)N1c1cc([N+](=O)[O-])ccc1N2 (configuration not stated) | – | > 100 µM (inactive) | – | > 100 µM (inactive) | > 100 µM (inactive) | > 100 µM (inactive) | > 100 µM (inactive) | > 100 µM (inactive) | > 100 µM (inactive) | > 100 µM (inactive) | > 100 µM (inactive) | > 100 µM (inactive) | > 100 µM (inactive) | > 100 µM (inactive) | > 100 µM (inactive) | > 100 µM (inactive) | –
9 | COC(=O)C1=C(C(=O)OC)C2(C)Nc3ccccc3C2=C(c2ccccc2)C1 (configuration not stated) | 13.3 µM (inactive) | 21.3 µM (inactive) | 26.2 µM (inactive) | 17.9 µM (inactive) | 23.2 µM (inactive) | 19.9 µM (inactive) | 11.9 µM (inactive) | – | – | 19.8 µM (inactive) | 19 µM (inactive) | 24 µM (inactive) | 28.8 µM (inactive) | 22.1 µM (inactive) | 18.4 µM (inactive) | 17.9 µM (inactive) | –
10 | CCN(CC)c1cccc2c1/C(=N/O)CCCC2 | – | 90.2 µM (inactive) | – | > 100 µM (inactive) | 83.8 µM (inactive) | > 100 µM (inactive) | 65.8 µM (inactive) | – | > 100 µM (inactive) | > 100 µM (inactive) | > 100 µM (inactive) | > 100 µM (inactive) | > 100 µM (inactive) | > 100 µM (inactive) | > 100 µM (inactive) | > 100 µM (inactive) | –
11 | CCC1=C(C)/C(=C/c2[nH]c(C(Br)Br)c(CC)c2C)N=C1C(Br)Br | 74.1 µM (inactive) | 29.9 µM (inactive) | 12.8 µM (inactive) | 20.7 µM (inactive) | 26.1 µM (inactive) | 16.9 µM (inactive) | 5.93 µM (inactive) | – | 20.1 µM (inactive) | 45.4 µM (inactive) | 32.4 µM (inactive) | 33.3 µM (inactive) | 30.1 µM (inactive) | 14.6 µM (inactive) | 35 µM (inactive) | – | –
12 | NNC(=O)CNC(=O)c1ccc(Cl)cc1Cl | > 100 µM (inactive) | – | > 100 µM (inactive) | > 100 µM (inactive) | > 100 µM (inactive) | > 100 µM (inactive) | > 100 µM (inactive) | > 100 µM (inactive) | > 100 µM (inactive) | > 100 µM (inactive) | > 100 µM (inactive) | > 100 µM (inactive) | > 100 µM (inactive) | > 100 µM (inactive) | > 100 µM (inactive) | > 100 µM (inactive) | > 100 µM (inactive)
13 | O=[N+]([O-])c1ccc(N2N=C(c3ccc(NCc4nc5ccccc5[nH]4)cc3)CC2c2ccco2)cc1 (configuration not stated) | 32.2 µM (inactive) | 42.2 µM (inactive) | 30.9 µM (inactive) | 6.53 µM (inactive) | 23.6 µM (inactive) | 17.6 µM (inactive) | 10.4 µM (inactive) | 28.8 µM (inactive) | – | 37.4 µM (inactive) | 19.9 µM (inactive) | 23.4 µM (inactive) | – | 22.8 µM (inactive) | 28.5 µM (inactive) | 20.2 µM (inactive) | 48.6 µM (inactive)
14 | NC(=O)C(N)=O | > 100 µM (inactive) | > 100 µM (inactive) | > 100 µM (inactive) | > 100 µM (inactive) | > 100 µM (inactive) | > 100 µM (inactive) | > 100 µM (inactive) | > 100 µM (inactive) | – | > 100 µM (inactive) | > 100 µM (inactive) | > 100 µM (inactive) | > 100 µM (inactive) | > 100 µM (inactive) | > 100 µM (inactive) | – | –
15 | O=C(OC1CC(n2cc(F)c(=O)[nH]c2=O)OC1CSC(=O)c1ccccc1)c1ccccc1 (configuration not stated) | 22.9 µM (inactive) | 27.3 µM (inactive) | 4.85 µM (inactive) | 38.8 µM (inactive) | 33.7 µM (inactive) | 23.3 µM (inactive) | 25.7 µM (inactive) | 41.6 µM (inactive) | 31.3 µM (inactive) | 48 µM (inactive) | 26.4 µM (inactive) | 59.7 µM (inactive) | 33.3 µM (inactive) | 34.6 µM (inactive) | 28.7 µM (inactive) | 16.6 µM (inactive) | –
16 | CCCCN(CCCC)C(=O)C(=O)CC(=O)c1ccc(Br)cc1 | > 100 µM (inactive) | – | > 100 µM (inactive) | > 100 µM (inactive) | > 100 µM (inactive) | > 100 µM (inactive) | > 100 µM (inactive) | > 100 µM (inactive) | > 100 µM (inactive) | – | > 100 µM (inactive) | > 100 µM (inactive) | > 100 µM (inactive) | > 100 µM (inactive) | > 100 µM (inactive) | > 100 µM (inactive) | > 100 µM (inactive)
17 | CC(=O)NNc1nc(C)c(C(=O)NNC(=O)C(=O)Nc2ccc([N+](=O)[O-])cc2C#N)s1 | – | – | > 100 µM (inactive) | > 100 µM (inactive) | > 10 µM (inactive) | > 100 µM (inactive) | 38.5 µM (inactive) | 58.1 µM (inactive) | > 100 µM (inactive) | > 100 µM (inactive) | 96.4 µM (inactive) | > 100 µM (inactive) | 96.4 µM (inactive) | 83.6 µM (inactive) | > 100 µM (inactive) | 45.3 µM (inactive) | –
18 | Cc1c(C(=O)CSc2nc3ccccc3c(=O)n2-c2ccccc2)c(=O)n(-c2ccccc2)n1C | 24.3 µM (inactive) | – | > 100 µM (inactive) | 34.8 µM (inactive) | 28.8 µM (inactive) | > 100 µM (inactive) | > 100 µM (inactive) | 42.4 µM (inactive) | 23.3 µM (inactive) | 99.3 µM (inactive) | 62.4 µM (inactive) | 44.4 µM (inactive) | – | 35.2 µM (inactive) | 60.5 µM (inactive) | > 100 µM (inactive) | 0.185 µM (active)
19 | O=C(NCCCl)SCCO | – | > 100 µM (inactive) | > 100 µM (inactive) | > 100 µM (inactive) | > 100 µM (inactive) | > 100 µM (inactive) | > 100 µM (inactive) | > 100 µM (inactive) | > 100 µM (inactive) | > 100 µM (inactive) | > 100 µM (inactive) | > 100 µM (inactive) | > 100 µM (inactive) | > 100 µM (inactive) | > 100 µM (inactive) | > 100 µM (inactive) | –
